Test results as given in paper PMC8208971, “Copper-binding anticancer peptides from the piscidin family: an expanded mechanism that encompasses physical and chemical bilayer disruption” (Scientific Reports, 2021).
Read-outs that look alike come from different tables or passages of the source. No end group written: not given here.

Experiments:
[1] = test system: HT1080 (fibrosarcoma) cancer cells; assay: MTS cytotoxicity assay on HT1080 cells; assay type: cell-based
[2] = test system: MDA-MB-231 (breast) cancer cells; assay type: cell-based; settings: for IC50: 24 h
[3] = test system: A549 human lung cancer cells; assay: MTT cytotoxicity assay on A549 cells; assay type: cell-based; settings: for Factor by which metallation with Cu^2+ increases efficacy, A549: from average IC50 values, apo vs Cu^2+-bound
[4] = test system: normal MRC-5 (lung) fibroblast cells; assay: Cytotoxicity assay on normal MRC-5 fibroblasts; assay type: cell-based; settings: 95% confidence interval in parentheses; for apo-P1 given as 50% inhibition at
Source text: A549 human lung cancer cells were obtained from ATCC (ATCC CCL-185) and were maintained in Dulbecco’s Modified Eagle’s Medium (DMEM-F12, Lonza, catalog no. 12-719F) supplemented with 10% heat inactivated FBS and 1% Penn-Step. The HT1080 and MRC-5 cells were purchased from ATCC (catalog no. CCL-121 and CCL-171, respectively) and grown in Eagle’s Minimum Essential Medium (ATCC, catalog no. 30-2003TM) that was supplemented with FBS (ATCC, catalog no. 30-2021TM) such that the medium contained 10% FBS. The MDA-MB-231 and HeLa cells were obtained from ATCC (ATCC, catalog no. HTB-26 and CCL-2, respectively) and maintained in DMEM supplemented with 10% FBS. All cell cultures were grown at 37.5 °C in a humidified 5% CO2 atmosphere.
The cytotoxicity assays followed well established procedure, with the details given in the Supplementary Information. The assays were performed in triplicates using 96 well plates Cell viability was calculated using the equation: % viability = [(AT-AB)/(AC-AB)] × 100, where AT is the absorbance of the treatment well, AB is the average background absorbance measured from three wells containing only media, and AC is the absorbance of the […] control well, which received only 100 µL of media and 40 µL of MTT solution (i.e. no peptide). Averages and error bars were calculated as the mean + / − standard deviation based on triplicates. The IC50 values were obtained by fitting the percentage viability (% viability) vs Log (M) concentration of peptides to generate inhibitor dose response curve using the GraphPad Prism software. The curves were fitted using a least-squares minimization method. Individual data points on the graphs are provided as the mean (± standard deviation) from the triplicate % viability values. The GraphPad Prism algorithm converted the logIC50 into IC50 and used the standard error of the mean on the logIC50 to yield the 95% confidence interval for the logIC50 and IC50.
P1-Cu2+ and P3-Cu2+ were assayed on normal MRC-5 (lung) fibroblast cells (ATTC catalog no CCL-171), giving
given in parentheses. […]

[5] = SPR/EIS on tethered bilayer membrane (membrane permeation); settings: POPC tBLM, Tris 20 mmol/L, 50 mmol/L NaCl, pH 7.4; steps of 0.1 μmol/L, 10 min each
Procedure: Planar, tethered bilayer membranes (tBLM) supported on gold-coated surfaces (Fig. 2C) were made using 1-palmitoyl-2-oleoyl-sn-glycero-3-phosphocholine (POPC) to mimic cancer cell membranes[80],[81]. Combined, surface plasmon resonance (SPR)/electrical impedance spectroscopy (EIS) measurements (Fig. 3) were conducted by injecting the peptide in small increments while simultaneously observing (1) the kinetics associated with the peptides binding to the bilayer (SPR) and (2) the formation of peptide-lined defects that increase membrane permeation and conductance (EIS). […]
SPR/EIS measurements were carried out on tethered bilayer membrane (tBLM) using a custom-built instrument previously described (Fig. 2B)[123],[124]. […] Several POPC tBLMs were assembled on the gold surfaces using thiolated polyethyleneglycol linker molecules (1,2-di-O-myristyl-3-[ω-mercaptohexa(ethylene oxide) glycerol] (WC14) and β-mercaptoethanol (βME) at a ratio of 70:30 βME:WC14. The tBLMs were equilibrated in Tris buffer (20 mmol/L, 50 mmol/L NaCl, pH 7.4) and allowed to rest until both SPR and EIS signals were stable, before peptide injection. Two types of measurements were done. In the first type (Fig. 3), the peptide concentration was increased gradually, in steps of 0.1 μmol/L, and the SPR/EIS was monitored for 10 min after each addition. […]

[6] = Lipid oxidation, absorbance at 234 nm; settings: SUVs 0.20 mg/mL, P/L = 1:10 (26 µmol/L), 4 mmol/L phosphate pH 7.8, 24 h exposure to air, triplicates
Source text: It has long been known that certain divalent metal ions, especially iron and copper, promote lipid peroxidation (oxidative deterioration of polyunsaturated fatty acids), a mechanism that has been strongly associated with cellular injury and death. Divalent transition-metal ions participate in Fenton-like chemical reactions produces ROS (e.g., hydroxyl radicals, superoxide) that can oxidize double bonds within the membrane. Here, to learn about the possible piscidin/Cu^2+-mediated oxidation of double bonds in lipid bilayers, we used absorbance and mass spectrometry to measure the formation of the oxidation products in small unilamellar vesicles (SUV) constituted of di-linoleoyl-sn-glycero-3-phosphocholine (DLPC) and POPG mixed in a 3:1 molar ratio and prepared at a concentration of 0.50 mg total lipid/mL. We first tested the ability of free Cu^2+ to oxidize the double bonds within the liposomes. Increasing amounts of Cu^2+ for a fixed amount of lipids (expressed as Cu/L, the molar ratio of Cu^2+ to total lipid) were mixed with the SUVs and the absorbance was measured at λ = 234 nm (Fig. 7A) (corresponding to λmax for the conjugated dienes that appear in lipid oxidation products)[92],[93]. Because molecular oxygen (O2) found in the atmosphere readily dissolves in the bilayer, no exogenous oxidant is needed to initiate the oxidation of the double bonds. […]

[7] = test system: normal MRC-5 (lung) fibroblast cells; design: dose or concentration left out as unconfirmed; settings: at about; ref Lin et al.1; cited from earlier work
Source text: (§1) Tested at up to 10 µ mol/L ...

[8] = test system: HGF-1 (gingival) fibroblast cells; settings: tested at up; no significant inhibitory effects; ref Cheng et al.2; cited from earlier work
Source text: as §1

[9] = test system: OMF (mucosal) fibroblast cells; settings: tested at up to 10 mol/L; no significant inhibitory effects; ref Cheng et al.2; cited from earlier work
Source text: as §1

[10] = test system: HeLa (cervical) cancer cells; assay: MTS cytotoxicity assay on HeLa cells; assay type: cell-based; settings: 24 h treatment, triplicates, 95% CI in parentheses, for P3 first data point at 0.16 µmol/L not used, holo-forms 1:1 CuCl2

IC50 [2] [µM]	Compound	Factor by which metallation with Cu^2+ increases efficacy, A549 [3]	IC50 [4] [µM]	Peptide concentration inducing drop in bilayer resistance (EIS) [5] [µmol/L]	Lipid oxidation (absorbance peak at 234 nm) [6]	IC50 ([1]; 24 h) [µM]	IC50 ([3]; 24 h) [µM]	also measured
	[Cl][Cu][Cl] [Free Cu^2+, CuCl2, reference compound]							Cytotoxicity of free Cu^2+ ([1]; CuCl2 tested at up to 30 µmol/L, HT1080 cells, same conditions as the peptides (Fig. S1B)): not cytotoxic
	FFHHIFRGIVHVGKTIHRLVTG-NH2 [P1, piscidin 1]	≈ 2 fold	8.56	0.2	little lipid oxidation			Factor by which metallation with Cu^2+ increases efficacy, MDA-MB-231 ([2]; from average IC50 values, apo vs Cu^2+-bound, given as 'up to'): ≈ 2 fold; Inhibition of MRC-5 cells [7]: ~ 45%; Survival, HGF-1 [8]: > 90%; Survival, OMF [9]: > 90%
	FFHHIFRGIVHVGKTIHRLVTG-NH2 [P1-Cu^2+]		5.97					IC50 ([1]; MTS, 24 h treatment, triplicates, 95% confidence interval in parentheses, holo-forms metallated 1:1 with CuCl2, read-out: IC50, HT1080): 5.31 µM; IC50 ([3]; MTT, 24 h treatment, triplicates, 95% CI in parentheses, holo-forms 1:1 CuCl2, read-out: IC50, A549): 2.15 µM; IC50 [10]: 2.17 µM
17.5	FIHHIFRGIVHAGRSIGRFLTG-NH2 [P3, piscidin 3]	≈ 7 fold		0.5	little lipid oxidation	26	21.6	Factor by which metallation with Cu^2+ increases efficacy, HT1080 ([1]; from average IC50 values, apo vs Cu^2+-bound): ≈ 5 fold
5.25	FIHHIFRGIVHAGRSIGRFLTG-NH2 [P3-Cu^2+]		8.62			5.52	2.99	
